In patent publication US9376392B2, “2-(tert-butoxy)-2-(7-methylquinolin-6-yl) acetic acid derivatives for treating AIDS” (Gilead Sciences, Inc., priority 2012, dated 2016):

Each compound was assayed on HIV-IIIb (MT-4 cells) (assay: Test A: Antiviral Assays in MT4 Cells). Details: MT4, 120 h, MT-4 cells infected with HIV-IIIb, 5 days of incubation, CellTiter-Glo readout.
Assay type: cell-based
Method: The antiviral properties of a compound disclosed herein may be determined using Test A described below.
Test A: Antiviral Assays in MT4 Cells
For the antiviral assay utilizing MT-4 cells, 0.4 μL of […] test concentration of 3-fold serially diluted compound in DMSO was added to 40 μL of cell growth medium (RPMI 1640, 10% FBS, 1% penicillin/Streptomycin, 1% L-Glutamine, 1% HEPES) in each well of 384-well assay plates (10 concentrations) in quadruplicate.
1 mL aliquots of 2×10e6 MT-4 cells are pre-infected for 1 and 3 hrs respectively, @ 37° C. with 25 μL (MT4) or of either cell growth medium (mock-infected) or a fresh 1:250 dilution of an HIV-IIIb concentrated ABI stock (0.004 m.o.i. for MT4 cells). Infected and uninfected cells are diluted in cell growth medium and 35 μL of 2000 (for MT4) cells is added to each well of the assay plates.
Assay plates were then incubated in a 37° C. incubator. After 5 days of incubation, […] 2× concentrated CellTiter-Glo™ Reagent (catalog #G7573, Promega Biosciences, Inc., Madison, Wis.) was added to each well of the assay plate. Cell lysis was carried out by incubating at room temperature for 2-3 min and then chemiluminescence was read using the Envision reader (PerkinElmer).
With `Cc1cc2nc(N)ccc2c(-c2ccc3c4c(ccnc24)CCO3)c1[C@H](OC(C)(C)C)C(=O)O` (atropisomer, axis not shown) [Example 47, (S)-2-((R)-2-Amino-5-(2,3-dihydropyrano[4,3,2-de]quinolin-7-yl)-7-methylquinolin-6-yl)-2-tert-butoxyacetic acid] the EC50 was 292 nM.
Compound `CC(=O)Nc1ccc2c(-c3ccc4c5c(ccnc35)CCO4)c([C@H](OC(C)(C)C)C(=O)O)c(C)cc2n1` (atropisomer, axis not shown) [Example 48, (S)-2-((R)-2-Acetamido-5-(2,3-dihydropyrano[4,3,2-de]quinolin-7-yl)-7-methylquinolin-6-yl)-2-tert-butoxyacetic acid] has an EC50 of 361 nM.
Compound `Cc1cc2nc(NC(=O)c3ccccc3)ccc2c(-c2ccc3c4c(ccnc24)CCO3)c1[C@H](OC(C)(C)C)C(=O)O` (atropisomer, axis not shown) [Example 49, (S)-2-((R)-2-Benzamido-5-(2,3-dihydropyrano[4,3,2-de]quinolin-7-yl)-7-methylquinolin-6-yl)-2-tert-butoxyacetic acid] has an EC50 of 134 nM.
`Cc1cc2nc(C#N)ccc2c(-c2ccc3c4c(ccnc24)CCO3)c1[C@H](OC(C)(C)C)C(=O)O` (atropisomer, axis not shown) [Example 50, (S)-2-tert-Butoxy-2-((R)-2-cyano-5-(2,3-dihydropyrano[4,3,2-de]quinolin-7-yl)-7-methylquinolin-6-yl)acetic acid] showed an EC50 of 166 nM.
`Cc1cc2nc(C(C)(C)O)ccc2c(-c2ccc3c4c(ccnc24)CCO3)c1[C@H](OC(C)(C)C)C(=O)O` (atropisomer, axis not shown) [Example 51, (S)-2-tert-Butoxy-2-((R)-5-(2,3-dihydropyrano[4,3,2-de]quinolin-7-yl)-2-(2-hydroxypropan-2-yl)-7-methylquinolin-6-yl)acetic acid] gave an EC50 of 186 nM.
For `Cc1cc2nc(C(C)(F)F)ccc2c(-c2ccc3c4c(ccnc24)CCO3)c1[C@H](OC(C)(C)C)C(=O)O` (atropisomer, axis not shown) [Example 52, (S)-2-tert-Butoxy-2-((R)-2-(1,1-difluoroethyl)-5-(2,3-dihydropyrano[4,3,2-de]quinolin-7-yl)-7-methylquinolin-6-yl)acetic acid], the EC50 was 65.1 nM.
`Cc1cc2c(ccc3cnnn32)c(-c2ccc3c4c(ccnc24)CCO3)c1[C@H](OC(C)(C)C)C(=O)O` (atropisomer, axis not shown) [Example 55, (S)-2-tert-butoxy-2-((R)-6-(2,3-dihydropyrano[4,3,2-de]quinolin-7-yl)-8-methyl-[1,2,3]triazolo[1,5-a]quinolin-7-yl)acetic acid] gave an EC50 of 78.4 nM.
Compound `Cc1cc2c(ccc(=O)n2Cc2cccc(S(C)(=O)=O)c2)c(-c2ccc(Cl)cc2)c1[C@H](OC(C)(C)C)C(=O)O` [Example 6, (S)-2-tert-Butoxy-2-(5-(4-chlorophenyl)-7-methyl-1-(3-(methylsulfonyl)benzyl)-2-oxo-1,2-dihydroquinolin-6-yl)acetic acid] has an EC50 of 290 nM.
In the case of `Cc1cc2c(ccc(=O)n2Cc2cccc(C(F)(F)F)c2)c(-c2ccc(Cl)cc2)c1[C@H](OC(C)(C)C)C(=O)O` [Example 7, (S)-2-tert-Butoxy-2-(5-(4-chlorophenyl)-7-methyl-2-oxo-1-(3-(trifluoromethyl)benzyl)-1,2-dihydroquinolin-6-yl)acetic acid], the EC50 is reported as 187 nM.
For `Cc1cc2nc(C(C)F)ccc2c(-c2ccc3c4c(ccnc24)CCO3)c1[C@H](OC(C)(C)C)C(=O)O` (stereo partly drawn) [Example 53, (2S)-2-tert-Butoxy-2-((5R)-5-(2,3-dihydropyrano[4,3,2-de]quinolin-7-yl)-2-(1-fluoroethyl)-7-methylquinolin-6-yl)acetic acid], the EC50 was 22.1 nM.
